Measurements reported in the supplement of paper PMC11451515.

Key:
Details in all cases: 48 h
NOMO1 [1] = assay: cell viability relative to DMSO control; higher = less cytotoxic
Method in brief: (§1)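 NOMO1 or SEM (500 cells/well) or P12-Ichikawa (1000 cells/well) leukemia cells were adapted for at least four passages in each medium. They were seeded in 1536-well plates (5 μl) and pin-dosed with library compounds in DMSO over an 11-point threefold series, 47 μM to 0.79 nM. CellTiter-Glo One luminescence was read after 48 h at 37°C. Viability is the per-plate percentage relative to DMSO wells, with cell-free wells as background.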

P12-Ichikawa [2] = assay: as above
Method in brief: as §1

SEM cells [3] = assay: as above
Method in brief: as §1

NOMO1 [4] = assay: AUC of viability dose-response curve (% viability x log10 dose units); higher = less sensitive
Method in brief: (§2)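 Leukemia cells adapted to each medium were seeded at 500 or 1000 cells/well in 1536-well plates and dosed with library compounds in DMSO at 11 threefold doses from 47 μM to 0.79 nM for 48 h at 37°C. CellTiter-Glo One luminescence was normalised per plate to DMSO and cell-free wells, then fitted with a four-parameter log-logistic model over log10 doses. Area under the curve was taken from this fit by the trapezoidal rule, with curves above full viability scaled and curves failing quality control removed.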

P12-Ichikawa [5] = assay: as above
Method in brief: as §2

SEM cells [6] = assay: as above
Method in brief: as §2

CCCn1c(=O)c2[nH]c(-c3cnn(Cc4cccc(C(F)(F)F)c4)c3)nc2n(CC)c1=O
cell viability [%]
Details	NOMO1 [1]	P12-Ichikawa [2]	SEM cells [3]
HPLM + 10% dialyzed FBS, 0.000781 µM	111	108	100
HPLM + 10% dialyzed FBS, 0.00234 µM	113	106	109
HPLM + 10% dialyzed FBS, 0.00702 µM	102	122	111
HPLM + 10% dialyzed FBS, 0.0211 µM	125	112	120
HPLM + 10% dialyzed FBS, 0.0632 µM	115	112	109
HPLM + 10% dialyzed FBS, 0.19 µM	116	115	124
HPLM + 10% dialyzed FBS, 0.569 µM	96	109	124
HPLM + 10% dialyzed FBS, 1.71 µM	82.4	106	113
HPLM + 10% dialyzed FBS, 5.12 µM	64.1	88.1	107
HPLM + 10% dialyzed FBS, 15.4 µM	56.4	83.3	109
HPLM + 10% dialyzed FBS, 46.1 µM	43.5	84.7	95.4
RPMI 5 mM glucose + 10% FBS, 0.000781 µM	92.7	115	95.8
RPMI 5 mM glucose + 10% FBS, 0.00234 µM	93.1	124	89.9
RPMI 5 mM glucose + 10% FBS, 0.00702 µM	101	123	106
RPMI 5 mM glucose + 10% FBS, 0.0211 µM	103	137	109
RPMI 5 mM glucose + 10% FBS, 0.0632 µM	103	125	103
RPMI 5 mM glucose + 10% FBS, 0.19 µM	105	118	108
RPMI 5 mM glucose + 10% FBS, 0.569 µM	102	85.6	99.8
RPMI 5 mM glucose + 10% FBS, 1.71 µM	98.8	73	94.4
RPMI 5 mM glucose + 10% FBS, 5.12 µM	82.7	65.1	116
RPMI 5 mM glucose + 10% FBS, 15.4 µM	69.8	74.6	109
RPMI 5 mM glucose + 10% FBS, 46.1 µM	61.5	72.9	90.5
RPMI 5 mM glucose + 10% dialyzed FBS, 0.000781 µM	98.6	114	109
RPMI 5 mM glucose + 10% dialyzed FBS, 0.00234 µM	104	109	109
RPMI 5 mM glucose + 10% dialyzed FBS, 0.00702 µM	92.1	105	111
RPMI 5 mM glucose + 10% dialyzed FBS, 0.0211 µM	81.6	108	111
RPMI 5 mM glucose + 10% dialyzed FBS, 0.0632 µM	105	107	116
RPMI 5 mM glucose + 10% dialyzed FBS, 0.19 µM	103	109	124
RPMI 5 mM glucose + 10% dialyzed FBS, 0.569 µM	85.3	109	109
RPMI 5 mM glucose + 10% dialyzed FBS, 1.71 µM	80.6	103	104
RPMI 5 mM glucose + 10% dialyzed FBS, 5.12 µM	76.9	81.4	112
RPMI 5 mM glucose + 10% dialyzed FBS, 15.4 µM	65.2	73.6	117
RPMI 5 mM glucose + 10% dialyzed FBS, 46.1 µM	44.7	68.8	98.4

AUC of viability dose-response curve
Details	NOMO1 [4]	P12-Ichikawa [5]	SEM cells [6]
HPLM + 10% dialyzed FBS	394	446	470
RPMI 5 mM glucose + 10% FBS	443	388	467
RPMI 5 mM glucose + 10% dialyzed FBS	413	438	467

CC(C)c1ccc2oc3nc(N)c(C(=O)O)cc3c(=O)c2c1
cell viability [%]
Details	NOMO1 [1]	P12-Ichikawa [2]	SEM cells [3]
HPLM + 10% dialyzed FBS, 0.000781 µM	–	120	106
HPLM + 10% dialyzed FBS, 0.00234 µM	–	119	109
HPLM + 10% dialyzed FBS, 0.00702 µM	–	119	96.6
HPLM + 10% dialyzed FBS, 0.0211 µM	–	124	109
HPLM + 10% dialyzed FBS, 0.0632 µM	–	130	126
HPLM + 10% dialyzed FBS, 0.19 µM	–	132	108
HPLM + 10% dialyzed FBS, 0.569 µM	–	128	128
HPLM + 10% dialyzed FBS, 1.71 µM	–	131	115
HPLM + 10% dialyzed FBS, 5.12 µM	–	125	106
HPLM + 10% dialyzed FBS, 15.4 µM	–	129	118
HPLM + 10% dialyzed FBS, 46.1 µM	–	118	102
RPMI 5 mM glucose + 10% FBS, 0.000781 µM	121	–	116
RPMI 5 mM glucose + 10% FBS, 0.00234 µM	121	–	131
RPMI 5 mM glucose + 10% FBS, 0.00702 µM	128	–	122
RPMI 5 mM glucose + 10% FBS, 0.0211 µM	137	–	122
RPMI 5 mM glucose + 10% FBS, 0.0632 µM	136	–	145
RPMI 5 mM glucose + 10% FBS, 0.19 µM	128	–	134
RPMI 5 mM glucose + 10% FBS, 0.569 µM	123	–	150
RPMI 5 mM glucose + 10% FBS, 1.71 µM	134	–	121
RPMI 5 mM glucose + 10% FBS, 5.12 µM	133	–	134
RPMI 5 mM glucose + 10% FBS, 15.4 µM	130	–	140
RPMI 5 mM glucose + 10% FBS, 46.1 µM	122	–	137
RPMI 5 mM glucose + 10% dialyzed FBS, 0.000781 µM	–	–	98
RPMI 5 mM glucose + 10% dialyzed FBS, 0.00234 µM	–	–	118
RPMI 5 mM glucose + 10% dialyzed FBS, 0.00702 µM	–	–	134
RPMI 5 mM glucose + 10% dialyzed FBS, 0.0211 µM	–	–	141
RPMI 5 mM glucose + 10% dialyzed FBS, 0.0632 µM	–	–	141
RPMI 5 mM glucose + 10% dialyzed FBS, 0.19 µM	–	–	131
RPMI 5 mM glucose + 10% dialyzed FBS, 0.569 µM	–	–	143
RPMI 5 mM glucose + 10% dialyzed FBS, 1.71 µM	–	–	127
RPMI 5 mM glucose + 10% dialyzed FBS, 5.12 µM	–	–	146
RPMI 5 mM glucose + 10% dialyzed FBS, 15.4 µM	–	–	146
RPMI 5 mM glucose + 10% dialyzed FBS, 46.1 µM	–	–	129

AUC of viability dose-response curve
Details	NOMO1 [4]	P12-Ichikawa [5]	SEM cells [6]
HPLM + 10% dialyzed FBS	469	467	466
RPMI 5 mM glucose + 10% FBS	470	470	449
RPMI 5 mM glucose + 10% dialyzed FBS	472	474	462

Cc1ccc(F)c(NC(=O)Nc2ccc(-c3cccc4[nH]nc(N)c34)cc2)c1
cell viability [%]
Details	NOMO1 [1]	P12-Ichikawa [2]	SEM cells [3]
HPLM + 10% dialyzed FBS, 0.000781 µM	91.4	102	91.7
HPLM + 10% dialyzed FBS, 0.00234 µM	111	113	92.7
HPLM + 10% dialyzed FBS, 0.00702 µM	118	107	86.3
HPLM + 10% dialyzed FBS, 0.0211 µM	125	112	76.2
HPLM + 10% dialyzed FBS, 0.0632 µM	115	112	59.5
HPLM + 10% dialyzed FBS, 0.19 µM	111	115	56.7
HPLM + 10% dialyzed FBS, 0.569 µM	110	115	55.1
HPLM + 10% dialyzed FBS, 1.71 µM	110	120	62.9
HPLM + 10% dialyzed FBS, 5.12 µM	117	116	64.9
HPLM + 10% dialyzed FBS, 15.4 µM	93.8	111	64.2
HPLM + 10% dialyzed FBS, 46.1 µM	86.6	81.5	14.4
RPMI 5 mM glucose + 10% FBS, 0.000781 µM	99.6	112	73.4
RPMI 5 mM glucose + 10% FBS, 0.00234 µM	125	113	84.4
RPMI 5 mM glucose + 10% FBS, 0.00702 µM	121	113	80.3
RPMI 5 mM glucose + 10% FBS, 0.0211 µM	108	112	69.9
RPMI 5 mM glucose + 10% FBS, 0.0632 µM	123	118	49.7
RPMI 5 mM glucose + 10% FBS, 0.19 µM	118	126	48.4
RPMI 5 mM glucose + 10% FBS, 0.569 µM	113	108	41.7
RPMI 5 mM glucose + 10% FBS, 1.71 µM	115	126	56
RPMI 5 mM glucose + 10% FBS, 5.12 µM	118	120	48.8
RPMI 5 mM glucose + 10% FBS, 15.4 µM	114	132	29.9
RPMI 5 mM glucose + 10% FBS, 46.1 µM	105	95.3	1.63
RPMI 5 mM glucose + 10% dialyzed FBS, 0.000781 µM	106	105	87.5
RPMI 5 mM glucose + 10% dialyzed FBS, 0.00234 µM	112	122	91.3
RPMI 5 mM glucose + 10% dialyzed FBS, 0.00702 µM	108	123	82.1
RPMI 5 mM glucose + 10% dialyzed FBS, 0.0211 µM	123	122	71.1
RPMI 5 mM glucose + 10% dialyzed FBS, 0.0632 µM	116	127	65.8
RPMI 5 mM glucose + 10% dialyzed FBS, 0.19 µM	105	127	48.7
RPMI 5 mM glucose + 10% dialyzed FBS, 0.569 µM	120	97.2	60.6
RPMI 5 mM glucose + 10% dialyzed FBS, 1.71 µM	117	132	61.7
RPMI 5 mM glucose + 10% dialyzed FBS, 5.12 µM	104	131	57.6
RPMI 5 mM glucose + 10% dialyzed FBS, 15.4 µM	111	116	43.5
RPMI 5 mM glucose + 10% dialyzed FBS, 46.1 µM	87.8	92.6	8.13

AUC of viability dose-response curve
Details	NOMO1 [4]	P12-Ichikawa [5]	SEM cells [6]
HPLM + 10% dialyzed FBS	464	470	314
RPMI 5 mM glucose + 10% FBS	472	472	256
RPMI 5 mM glucose + 10% dialyzed FBS	471	470	296
